Earlier results on 41 substances are cited in paper PMC8198792, “Prediction of Anticancer Peptides with High Efficacy and Low Toxicity by Hybrid Model Based on 3D Structure of Peptides” (International Journal of Molecular Sciences, 2021).

The subject of the series is cancer cell lines. Set-up: method as in 6 sources, ref CancerPPD [45] and SATPdb ||| ref CancerPPD/SATPdb ||| ref CancerPPD, SATPdb, Swissprot (PDB) ||| ref CancerPPD/SATPdb/Swissprot(PDB) ||| ref CancerPPD / SATPdb ||| ... The following applies: cited from earlier work. An excerpt: Supplement ijms-22-05630-s001.zip/ACPs(seguence).xlsx, sheet "D1" | column: Activity || Supplement ijms-22-05630-s001.zip/ACPs(seguence).xlsx, sheet "D2" | column: Activity || Supplement ijms-22-05630-s001.zip/ACPs(seguence).xlsx, sheet "D3" | column: Activity || (+ 2 further places)

Setting [1] is: ACPs dataset D3 (supplement sheet "D3"), 1 = ACP, 0 = non-ACP, ref CancerPPD [45] and SATPdb.
The mark [2] stands for this setting: ACPs dataset D4 (sheet "D4"), label 1 = ACP, experimentally validated ACPs, ref CancerPPD [45] and SATPdb.
Setting [3] is: ACPs dataset D5 (sheet "D5"), label 1 = ACP (positive set), sequences with CancerPPD/SATPdb ID, ref CancerPPD, SATPdb.
Setting [4] is: ACPs dataset D2 (supplement ACPs(seguence).xlsx, sheet D2), dataset label 1/0 (ACP / non-ACP), entries identified by Swissprot(PDB ID), ref CancerPPD/SATPdb/Swissprot(PDB).
Where [5] appears, read: ACPs dataset D5, sheet "D5", label 1 = ACP, 0 = non-ACP, ref CancerPPD [45] and SATPdb.
Setting [6] is: ACPs dataset D4 (sheet "D4"), label 1 = ACP, 0 = non-ACP, ref CancerPPD / SATPdb.
Where [7] appears, read: ACPs dataset D1, 1 = ACP (positive), 0 = non-ACP (negative), label taken from databases, ref CancerPPD [45] and SATPdb.
The mark [8] stands for this setting: ACPs dataset sheet D2, 1 = ACP (CancerPPD/SATPdb ID), 0 = non-ACP (Swissprot/PDB ID), ref CancerPPD, SATPdb, Swissprot (PDB).
[9] abbreviates: ACPs dataset D4 (sheet "D4"), label 1 = ACP (CancerPPD ID), 0 = non-ACP (non-anticancer AMP, SATPdb ID), ref CancerPPD [45] and SATPdb.
The mark [10] stands for this setting: ACPs dataset D5 (sheet "D5"), label 1 = ACP (positive set), 0 = non-ACP (negative set), ref CancerPPD [45] and SATPdb.
Where [11] appears, read: ACPs dataset D1, label 1 = ACP, 0 = non-ACP (non-anticancer AMPs from SATPdb), ref CancerPPD/SATPdb.
Where [12] appears, read: ACPs dataset D3 (sheet "D3"), label 1 = ACP, 0 = non-ACP, ref CancerPPD/SATPdb.

Like-named read-outs stand apart in the source and are kept apart here.

As for FLGWLFKWAWK [compound 1722], the Activity under setting [1] was 1, the Activity under setting [2] is 1 and the Activity under setting [3] is reported as 1.

With “MEKVQYLTRSAIRRASTIEMPQQARQNLQNLFINFCLILICLLLICIIVMLL [1N7L NMR - A 1-52]”, the Activity reads like this: under setting [4], 0; under setting [5], 0.

As for “MDIYVCTVCGYEYDPAKGDPDSGIKPGTKFEDLPDDWACPVCGASKDAFEKQ [2DSX X-ray 0.68 A 1-52]”, the Activity under setting [4] is recorded as 0 and the Activity under setting [5] is listed as 0.

As to FLPIVGRLISGLL [satpdb10939], the Activity was 0 under setting [1], 0 under setting [6] and 0 under setting [5].

In the case of SPWSSCSVTCGDGVITRIR [satpdb28070], the Activity by setting is: under setting [7], 1; under setting [2], 1; under setting [3], 1; under setting [8], 1.

For “KSSAYSLQMGATAIKQVKKLFKKWGW [compound 4448]”, the Activity by setting is: under setting [7], 1; under setting [2], 1; under setting [3], 1; under setting [8], 1.

As for “CSTNTFSLSDYWGNKGNWCTATHECMSWCK [satpdb10487]”, the Activity is 0 under setting [7] and 0 under setting [9].

On to “SVSNAATRVARTGRSRWRDVARNFMR [satpdb11117]”, for which the Activity is 0 under setting [7] and 0 under setting [9].

As to “KWkSFLkTFkSLKkTVLHTLLkAISS [compound 3764]”, the Activity runs as follows: under setting [1], 1; under setting [9], 1; under setting [10], 1.

Take “FLSLIPHAIN AVSAIAKHN [2JQ0 NMR - A 1-19]”: the Activity under setting [10] is recorded as 0 and the Activity under setting [8] is 0.

With “GIPCGESCVYIPCLTSAIGCSCKSKVCYRN [satpdb13250]”, the Activity is 0 under setting [11] and 0 under setting [6].

Consider GIIKKIIKKI [compound 2839], for which the Activity under setting [1] is 1, the Activity under setting [9] is recorded as 1 and the Activity under setting [10] is 1.

For the substance DRSTREPIYMSTI [satpdb20500], the Activity under setting [7] is given as 1, the Activity under setting [2] is recorded as 1, the Activity under setting [3] is 1 and the Activity under setting [8] was 1.

As for “DDTPSSRCGSGGWGPCLPIVDLLCIVHVTVGCSGGFGCCRIG [2JR3 NMR - A 1-42]”, the Activity under setting [4] is given as 0 and the Activity under setting [10] is 0.

Turning to VOLOfPVOLfP [satpdb12074], the Activity was 0 under setting [12], 0 under setting [6] and 0 under setting [5].

As for RGDLLRHVVKILEKYL [compound 1672], the Activity is on record as 1 under setting [7], 1 under setting [2], 1 under setting [3] and 1 under setting [8].

On to HFLLTLKNLAKKIL [satpdb10120], for which the Activity under setting [1] is listed as 0, the Activity under setting [6] is on record as 0 and the Activity under setting [5] was 0.

Regarding ASSGWVCTLTIECGTVICACR [satpdb11450], the Activity is recorded as 0 under setting [11] and 0 under setting [9].

In the case of GKWSKILGKLIR [compound 3644], the Activity is listed as 1 under setting [1], 1 under setting [9] and 1 under setting [10].

In the case of KWKSFIKKLTDKFLHSAKKF [satpdb12512], the Activity runs as follows: under setting [12], 0; under setting [6], 0; under setting [5], 0.

Take TEWSACSKTCGMGISTRV [satpdb13253]: the Activity is, setting by setting: under setting [7], 1; under setting [2], 1; under setting [3], 1; under setting [8], 1.

With ILPWKWPWAPARR [satpdb12615], the Activity is 0 under setting [12], 0 under setting [6] and 0 under setting [5].

With “ESVFSKIGNAVGPAAYWILKGLGNMSDVNQADRINRKKH [satpdb11882]”, the Activity by setting is: under setting [11], 0; under setting [9], 0.

Turning to HFLLTKVNLAKKIL [satpdb11375], the Activity runs as follows: under setting [1], 0; under setting [6], 0; under setting [5], 0.

For the substance “ALWKDILKNVGKAAGKAVLNTVTDMVNQ [compound 1707]”, the Activity reads like this: under setting [1], 1; under setting [2], 1; under setting [3], 1.

For GFHDHGPCDPPSHK [satpdb16441], the Activity under setting [7] is 1, the Activity under setting [2] is 1, the Activity under setting [3] is on record as 1 and the Activity under setting [8] is listed as 1.

On to “KRRHWFPLSFQEFLEQLRRFRDQLPFP [satpdb12966]”, for which the Activity is recorded as 0 under setting [11] and 0 under setting [6].

Take “KILRGVAKKILRTFLRRISKDILTGKK [compound 3329]”: the Activity reads like this: under setting [1], 1; under setting [9], 1; under setting [10], 1.

“SFGLCRLRRGFCARGRCRFPSIPIGRCSRFVQCCRRVW [1UT3 NMR - A 1-38]”: the Activity runs as follows: under setting [4], 0; under setting [10], 0.

For the substance FLWWLFKWAWK [compound 1728], the Activity is listed as 1 under setting [7]; 1 under setting [1]; 1 under setting [2]; 1 under setting [3]; 1 under setting [8].

Take KLLKKLLKWLK [satpdb13967]: the Activity by setting is: under setting [12], 0; under setting [6], 0; under setting [5], 0.

For INEFLERSGIPRQRNQ [satpdb14958], the Activity runs as follows: under setting [7], 1; under setting [2], 1; under setting [3], 1; under setting [8], 1.

Consider PGLKGKRGDSGSPATWTTRG [satpdb10562], for which the Activity is, setting by setting: under setting [7], 1; under setting [2], 1; under setting [3], 1; under setting [8], 1.

As to FLPAVLRVAAQVVPTVFCAISKKC [satpdb11368], the Activity under setting [7] is reported as 0 and the Activity under setting [9] is recorded as 0.

With “VLSIVACSSGCGSGKTAASCVETCGNRCFTNVGSLC [satpdb10613]”, the Activity by setting is: under setting [7], 0; under setting [9], 0.

For the substance LPRFSTMPFIYCNINEVCHY [satpdb13486], the Activity is, setting by setting: under setting [7], 1; under setting [2], 1; under setting [3], 1; under setting [8], 1.

Consider “ALSKALSKALSKALSKALSKALSK [compound 1357]”, for which the Activity was 1 under setting [1], 1 under setting [2] and 1 under setting [3].

In the case of “EDMNQKLFDLRGKFKRPPLRRVRMSADAML [satpdb19871]”, the Activity was 1 under setting [7], 1 under setting [2], 1 under setting [3] and 1 under setting [8].

In the case of RRWCFRVCYRGRFCYRKCR [satpdb14798], the Activity is 0 under setting [12], 0 under setting [6] and 0 under setting [5].

With “GSIPCEGSCVFIPCISAIIGCSCSNKVCYKN [compound 4379]”, the Activity reads like this: under setting [7], 1; under setting [2], 1; under setting [3], 1; under setting [8], 1.

For “MPQLVPFYFMNQLTYGFLLMITLLILFSQFFLPMILRLYVSRLFISKL [6B2Z electron microscopy 3.60,A/L,1-48]”, the Activity is 0 under setting [4] and 0 under setting [10].
